The values that follow are results of earlier work, collected in patent US12239131B2, “Plant growth regulator concentrate and use thereof” (FINE AGROCHEMICALS LIMITED, priority 2018, dated 2025).

As for `CC1(C)C2CCC1(CS(=O)(=O)O)C(=O)C2` (stereo not drawn) [Camphor sulfonic acid], the pKa is reported as 1.2. As to `O=S(=O)(O)CCO` [HESA, 2-hydroxyethyl sulphonic acid], the pKa is −1.4. As to `CC(O)(P(=O)(O)O)P(=O)(O)O` [HEDP, (1-hydroxyethane-1,1-diyl)bis(phosphonic acid)], the pKa is recorded as 1.35.
